This note sets out measurements from US10738004B2, “Cyclic compound” (Takeda Pharmaceutical Company Limited, priority 2016, dated 2020).

Series [1] deals with T1, TLR4 (Mus musculus, UniProt Q9QUK6).
T1 construct: measured using mouse macrophage cell line RAW264.7; endogenous in cells; host or cells: RAW264.7 (mouse macrophage cell line)
T1 sequence (Q9QUK6 26-835): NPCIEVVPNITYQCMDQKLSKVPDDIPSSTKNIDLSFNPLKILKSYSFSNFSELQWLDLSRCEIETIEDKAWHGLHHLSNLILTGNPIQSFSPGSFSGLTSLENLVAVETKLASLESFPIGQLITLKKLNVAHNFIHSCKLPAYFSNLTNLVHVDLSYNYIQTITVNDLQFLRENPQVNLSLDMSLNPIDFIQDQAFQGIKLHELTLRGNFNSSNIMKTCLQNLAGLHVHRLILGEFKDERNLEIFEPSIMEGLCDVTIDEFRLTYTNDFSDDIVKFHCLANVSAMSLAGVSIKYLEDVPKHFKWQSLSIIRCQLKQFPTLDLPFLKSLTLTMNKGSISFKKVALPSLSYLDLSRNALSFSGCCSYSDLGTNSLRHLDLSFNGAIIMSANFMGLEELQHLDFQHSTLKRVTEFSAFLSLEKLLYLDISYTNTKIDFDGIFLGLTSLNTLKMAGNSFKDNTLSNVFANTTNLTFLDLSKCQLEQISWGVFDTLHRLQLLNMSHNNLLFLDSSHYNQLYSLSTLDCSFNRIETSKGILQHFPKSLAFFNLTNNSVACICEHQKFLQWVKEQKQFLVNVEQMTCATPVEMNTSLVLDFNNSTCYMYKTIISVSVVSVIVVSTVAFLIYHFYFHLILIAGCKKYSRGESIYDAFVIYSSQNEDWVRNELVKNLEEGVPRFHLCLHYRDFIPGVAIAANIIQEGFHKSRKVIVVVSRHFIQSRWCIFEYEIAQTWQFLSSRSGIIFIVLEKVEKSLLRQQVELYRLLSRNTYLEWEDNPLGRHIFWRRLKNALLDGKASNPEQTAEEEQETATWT
T1 sequence (Q9JHF9 19-160 partner): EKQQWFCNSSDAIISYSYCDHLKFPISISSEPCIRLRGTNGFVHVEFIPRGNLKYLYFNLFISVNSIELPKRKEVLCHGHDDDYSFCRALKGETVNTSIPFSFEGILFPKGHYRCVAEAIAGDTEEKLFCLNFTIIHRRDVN
Kind of series: Suppressive effect on NO production (LPS-stimulated RAW264.7). As to conditions: mouse macrophage cell line RAW264.7; compound final concentration 10 nM; LPS 1.25 ng/ml + mouse interferon gamma 0.2 ng/ml; nitrite ion in culture supernatant (DAN fluorescence). The class given is cell-based. The method, then: The suppressive activity on TLR4 was measured using mouse macrophage cell line RAW264.7 and by an inhibition ratio by the test compound (compound of Example 1) against NO produced by the addition of lipopolysaccharide (LPS). The cells were prepared at 2×10^6 cells/ml in RPMI-1640 medium (phenol red free) supplemented with 10% inactivated fetal calf serum, and seeded in a 384-well plate at 6×10^4 cells/30 μL per well. The cells were cultured overnight at 37° C. under 5% CO2/95% air. The test compound dissolved in DMSO was diluted 200-fold with RPMI-1640 medium to a compound concentration of […]. The prepared test compound (10 μL) was added to the cells (final concentration 10 nM), and LPS (Sigma Ltd.) and mouse interferon gamma (Wako Pure Chemical Industries, Ltd.) were respectively added by 10 μL to the final concentrations of 1.25 ng/ml and 0.2 ng/ml. After further culturing overnight, the concentration of nitrite ion (stable metabolite of NO) in the culture supernatant was measured and used as an index of NO production. The nitrite ion concentration was quantified by adding 10 μL of a solution of 20 μg/mL 2,3-diaminonaphthalene (DAN) in 0.2N HCl to the culture supernatant (20 μL), incubating the mixture at room temperature for 10 min, adding 0.5N NaOH (10 μL), and measuring 460 nm (excitation wavelength 355 nm) fluorescence value by a plate reader EnVision (PerkinElmer). […]

One may read the melting point as the temperature, or range, at which the solid turns liquid. In turn, `CCOC(=O)C1=C[C@@H](O)CC[C@H]1S(=O)(=O)Cc1ccc(F)cc1Cl` (single isomer, unassigned) [Example 1] returned a melting point of 155 to 156 °C. Moreover, the “NO production suppression effect at 10 nM (% inhibition)” value in series [1] is reported as 98 % inhibition.
